Test results from the supplement of paper PMC4862054.

Legend:
Assay in all cases: normalised viability (% of control), CellTiter-Blue; higher = more viable cells (about 100 = DMSO control)
Conditions in all cases: incubation time: 72 h
[1] = tested on: BT-474
Description: (§1)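 DSRT, CellTiter-Blue viability, 72 h incubation. Signal is normalised to DMSO and benzethonium chloride controls. Value is the normalised response at dose 3.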

[2] = tested on: BT-549
Description: as §1

[3] = tested on: CAL-120
Description: as §1

[4] = tested on: CAL-148
Description: as §1

[5] = tested on: CAL-51
Description: as §1

[6] = tested on: CAL-85-1
Description: as §1

[7] = tested on: DU-4475
Description: as §1

[8] = tested on: HCC1143
Description: as §1

[9] = tested on: HCC1599
Description: as §1

[10] = tested on: HCC1937
Description: as §1

[11] = tested on: HDQ-P1
Description: as §1

[12] = tested on: Hs578T
Description: as §1

[13] = tested on: MDA-MB-231
Description: as §1

[14] = tested on: MDA-MB-436
Description: as §1

[15] = tested on: MDA-MB-453
Description: as §1

[16] = tested on: MDA-MB-468
Description: as §1

[17] = tested on: MFM-223
Description: as §1

[18] = tested on: SK-BR-3
Description: as §1

[19] = tested on: BT-549; remark: listed apart in the source
Procedure, shortened: (§2)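 After 72 h on compound-loaded 384-well plates, breast cancer cell lines received 2.5 µl CellTiter-Blue reagent for 2 h at 37 °C. Fluorescence at 560/590 nm was scaled per plate so that vehicle was 100 and a positive kill control was 0. The value stands for normalised viability at a single listed concentration of the series.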

[20] = tested on: CAL-120; remark: listed apart in the source
Procedure, shortened: as §2

[21] = tested on: CAL-148; remark: listed apart in the source
Procedure, shortened: as §2

[22] = tested on: CAL-51; remark: listed apart in the source
Procedure, shortened: as §2

[23] = tested on: DU-4475; remark: listed apart in the source
Procedure, shortened: as §2

[24] = tested on: HCC1143; remark: listed apart in the source
Procedure, shortened: as §2

[25] = tested on: HCC1599; remark: listed apart in the source
Procedure, shortened: as §2

[26] = tested on: HCC1937; remark: listed apart in the source
Procedure, shortened: as §2

[27] = tested on: HDQ-P1; remark: listed apart in the source
Procedure, shortened: as §2

[28] = tested on: MDA-MB-436; remark: listed apart in the source
Procedure, shortened: as §2

[29] = tested on: MFM-223; remark: listed apart in the source
Procedure, shortened: as §2

[30] = tested on: SK-BR-3; remark: listed apart in the source
Procedure, shortened: as §2

CC(C)C[C@H](NC(=O)[C@H](Cc1ccccc1)NC(=O)c1cnccn1)B(O)O [Bortezomib]
Conditions | normalised viability [%]
[1], 10 nM | 50.8
[2], 10 nM | 39.5
[3], 10 nM | 27.3
[4], 1 nM | 91.2
[5], 1 nM | 99.9
[6], 1 nM | 106
[7], 1 nM | 120
[8], 10 nM | 52.1
[9], 10 nM | 110
[10], 10 nM | 19.6
[11], 1 nM | 83.8
[12], 10 nM | 87.6
[13], 10 nM | 16.2
[14], 10 nM | 98.9
[15], 1 nM | 105
[16], 10 nM | 12
[17], 10 nM | 38.1
[18], 10 nM | 22.4
[19], 1 nM | 99.8
[19], 100 nM | 6.67
[19], 1000 nM | 3.15
[20], 1 nM | 95.8
[20], 100 nM | 4.31
[20], 1000 nM | 3.21
[21], 0.3 nM | 99.6
[21], 3 nM | 89
[21], 10 nM | 94.4
[22], 0.3 nM | 101
[22], 3 nM | 97.9
[22], 10 nM | 97.7
[23], 0.3 nM | 113
[23], 3 nM | 93.4
[23], 10 nM | 98.8
[24], 1 nM | 81
[24], 100 nM | 19.4
[24], 1000 nM | 17.4
[25], 1 nM | 130
[25], 100 nM | 64.5
[25], 1000 nM | 45.2
[26], 1 nM | 83.4
[26], 100 nM | 8.79
[26], 1000 nM | 3.46
[27], 0.3 nM | 79.4
[27], 3 nM | 87.9
[27], 10 nM | 10.2
[28], 1 nM | 101
[28], 100 nM | 12.2
[28], 1000 nM | 9.29
[29], 1 nM | 104
[29], 100 nM | 16.9
[29], 1000 nM | 15.3
[30], 1 nM | 90.2
[30], 100 nM | 17.5
[30], 1000 nM | 15.6

CS(=O)(=O)OCCCCOS(C)(=O)=O [Busulfan]
Conditions | normalised viability [%]
[1], 1000 nM | 110
[2], 1000 nM | 85.1
[3], 1000 nM | 113
[4], 100 nM | 106
[5], 100 nM | 95.3
[6], 100 nM | 115
[7], 100 nM | 91.4
[8], 1000 nM | 124
[9], 1000 nM | 101
[10], 1000 nM | 94.6
[11], 100 nM | 98.1
[12], 1000 nM | 91.2
[13], 1000 nM | 99.5
[14], 1000 nM | 93.3
[15], 100 nM | 102
[16], 1000 nM | 114
[17], 1000 nM | 90.3
[18], 1000 nM | 97.5
[19], 100 nM | 84
[19], 10000 nM | 92.4
[19], 100000 nM | 68.2
[20], 100 nM | 110
[20], 10000 nM | 105
[20], 100000 nM | 88.1
[21], 30 nM | 124
[21], 300 nM | 111
[21], 1000 nM | 115
[22], 30 nM | 103
[22], 300 nM | 95.4
[22], 1000 nM | 94.6
[23], 30 nM | 96.1
[23], 300 nM | 89.2
[23], 1000 nM | 94.7
[24], 100 nM | 104
[24], 10000 nM | 108
[24], 100000 nM | 108
[25], 100 nM | 90.2
[25], 10000 nM | 75.4
[25], 100000 nM | 109
[26], 100 nM | 86.4
[26], 10000 nM | 83.1
[26], 100000 nM | 43.7
[27], 30 nM | 109
[27], 300 nM | 113
[27], 1000 nM | 94.4
[28], 100 nM | 106
[28], 10000 nM | 95.2
[28], 100000 nM | 82.9
[29], 100 nM | 108
[29], 10000 nM | 95.7
[29], 100000 nM | 99.1
[30], 100 nM | 95.1
[30], 10000 nM | 104
[30], 100000 nM | 87.8

C#Cc1cccc(Nc2ncnc3cc(OC)c(OCCCCCCC(=O)NO)cc23)c1 [CUDC-101]
Conditions | normalised viability [%]
[1], 100 nM | 89.2
[2], 100 nM | 97.6
[3], 100 nM | 67.1
[4], 10 nM | 83.6
[5], 10 nM | 113
[6], 10 nM | 93
[7], 10 nM | 101
[8], 100 nM | 79.7
[9], 100 nM | 83.4
[10], 100 nM | 88.8
[11], 10 nM | 86.3
[12], 100 nM | 70.2
[13], 100 nM | 91.2
[14], 100 nM | 117
[15], 10 nM | 87.4
[16], 100 nM | 66.2
[17], 100 nM | 63.3
[18], 100 nM | 58.9
[19], 10 nM | 90.3
[19], 1000 nM | 64.6
[19], 10000 nM | 9.13
[20], 10 nM | 82.3
[20], 1000 nM | 38.3
[20], 10000 nM | 9.22
[21], 3 nM | 90.4
[21], 30 nM | 89.8
[21], 100 nM | 85.2
[22], 3 nM | 117
[22], 30 nM | 108
[22], 100 nM | 105
[23], 3 nM | 84
[23], 30 nM | 84.7
[23], 100 nM | 80.8
[24], 10 nM | 78.3
[24], 1000 nM | 32.8
[24], 10000 nM | 11.6
[25], 10 nM | 78.8
[25], 1000 nM | 28.6
[25], 10000 nM | 16
[26], 10 nM | 71.7
[26], 1000 nM | 45.4
[26], 10000 nM | 14.6
[27], 3 nM | 98.9
[27], 30 nM | 93.3
[27], 100 nM | 71.5
[28], 10 nM | 94.7
[28], 1000 nM | 53.9
[28], 10000 nM | 12
[29], 10 nM | 75.1
[29], 1000 nM | 20.4
[29], 10000 nM | 2.11
[30], 10 nM | 75.5
[30], 1000 nM | 16.8
[30], 10000 nM | 2.82

COc1cccc2c1C(=O)c1c(O)c3c(c(O)c1C2=O)C[C@@](O)(C(C)=O)C[C@@H]3O[C@H]1C[C@H](N)[C@H](O)[C@H](C)O1 [Daunorubicin]
Conditions | normalised viability [%]
[1], 10 nM | 115
[2], 10 nM | 95.1
[3], 10 nM | 79
[4], 1 nM | 103
[5], 1 nM | 99.8
[6], 1 nM | 102
[7], 1 nM | 95.8
[8], 10 nM | 79.2
[9], 10 nM | 104
[10], 10 nM | 77.9
[11], 1 nM | 153
[12], 10 nM | 85.9
[13], 10 nM | 85.2
[14], 10 nM | 92.1
[15], 1 nM | 103
[16], 10 nM | 99.8
[17], 10 nM | 90.9
[18], 10 nM | 87.3
[19], 1 nM | 87
[19], 100 nM | 59
[19], 1000 nM | 11
[20], 1 nM | 80.3
[20], 100 nM | 35.9
[20], 1000 nM | 9.51
[21], 0.3 nM | 88.5
[21], 3 nM | 106
[21], 10 nM | 77.6
[22], 0.3 nM | 97.1
[22], 3 nM | 92.9
[22], 10 nM | 88.2
[23], 0.3 nM | 84.7
[23], 3 nM | 86.3
[23], 10 nM | 70.7
[24], 1 nM | 81.4
[24], 100 nM | 52.7
[24], 1000 nM | 32
[25], 1 nM | 82.5
[25], 100 nM | 98.8
[25], 1000 nM | 53.7
[26], 1 nM | 105
[26], 100 nM | 34.2
[26], 1000 nM | 20
[27], 0.3 nM | 133
[27], 3 nM | 94.5
[27], 10 nM | 97.3
[28], 1 nM | 100
[28], 100 nM | 50.4
[28], 1000 nM | 17.3
[29], 1 nM | 108
[29], 100 nM | 104
[29], 1000 nM | 26.7
[30], 1 nM | 103
[30], 100 nM | 40.1
[30], 1000 nM | 6.42
